Experimental data from the NIST ThermoML archive (doi:10.1021/je900216m).
Numbers after ± are expanded uncertainties.

Experiment: osmotic coefficient (dimensionless); mn = molality of the nth substance listed, in mol/kg
Conditions: Liquid, isopiestic method

Q: With CCCC[N+](CC)(CC)CC.[Br-] [butyltriethyl ammonium bromide] + O as the compound, how does the osmotic coefficient (283.15 K, m1 = 0.1033) read?
A: 0.9271 ± 0.0029

Q: What about the osmotic coefficient (283.15 K, m1 = 0.1376) of the same compound?
A: 0.9231 ± 0.0031

Q: And the osmotic coefficient (283.15 K, m1 = 0.2187)?
A: 0.9188 ± 0.0033

Q: And the osmotic coefficient (283.15 K, m1 = 0.2974)?
A: 0.9175 ± 0.0034

Q: And the osmotic coefficient (283.15 K, m1 = 0.3319)?
A: 0.9169 ± 0.0035

Q: And the osmotic coefficient (283.15 K, m1 = 0.4688)?
A: 0.92 ± 0.0034

Q: And the osmotic coefficient (283.15 K, m1 = 0.555)?
A: 0.9241 ± 0.0034

Q: What about the osmotic coefficient (283.15 K, m1 = 0.679) of the same compound?
A: 0.9288 ± 0.0033

Q: What about the osmotic coefficient (283.15 K, m1 = 0.78) of the same compound?
A: 0.934 ± 0.0032

Q: What about the osmotic coefficient (283.15 K, m1 = 0.8485) of the same compound?
A: 0.9393 ± 0.0031

Q: And the osmotic coefficient (283.15 K, m1 = 0.9497)?
A: 0.9464 ± 0.0029

Q: And the osmotic coefficient (288.15 K, m1 = 0.1039)?
A: 0.9158 ± 0.0033

Q: And the osmotic coefficient (288.15 K, m1 = 0.1569)?
A: 0.904 ± 0.0038

Q: What about the osmotic coefficient (288.15 K, m1 = 0.2793) of the same compound?
A: 0.8916 ± 0.0043

Q: And the osmotic coefficient (288.15 K, m1 = 0.3789)?
A: 0.8853 ± 0.0046

Q: And the osmotic coefficient (288.15 K, m1 = 0.4818)?
A: 0.884 ± 0.0047

Q: What about the osmotic coefficient (288.15 K, m1 = 0.6069) of the same compound?
A: 0.8837 ± 0.0048

Q: And the osmotic coefficient (288.15 K, m1 = 0.6983)?
A: 0.8853 ± 0.0048

Q: And the osmotic coefficient (288.15 K, m1 = 0.8052)?
A: 0.8899 ± 0.0046

Q: What about the osmotic coefficient (288.15 K, m1 = 0.8847) of the same compound?
A: 0.8929 ± 0.0046

Q: What about the osmotic coefficient (288.15 K, m1 = 1.028) of the same compound?
A: 0.8989 ± 0.0044

Q: Which osmotic coefficient (283.15 K, m1 = 0.1034) does the source give for CCCC[N+](CC)(CC)CCCC.[Br-] [dibutyldiethylammonium bromdie] + O here?
A: 0.9261 ± 0.0029

Q: What about the osmotic coefficient (283.15 K, m1 = 0.1376) of the same compound?
A: 0.9232 ± 0.003

Q: What about the osmotic coefficient (283.15 K, m1 = 0.2189) of the same compound?
A: 0.9178 ± 0.0033

Q: And the osmotic coefficient (283.15 K, m1 = 0.2978)?
A: 0.9163 ± 0.0033

Q: And the osmotic coefficient (283.15 K, m1 = 0.3324)?
A: 0.9156 ± 0.0034

Q: What about the osmotic coefficient (283.15 K, m1 = 0.4702) of the same compound?
A: 0.9172 ± 0.0033

Q: What about the osmotic coefficient (283.15 K, m1 = 0.5576) of the same compound?
A: 0.9198 ± 0.0033

Q: What about the osmotic coefficient (283.15 K, m1 = 0.6825) of the same compound?
A: 0.924 ± 0.0032

Q: And the osmotic coefficient (283.15 K, m1 = 0.7842)?
A: 0.9289 ± 0.003

Q: And the osmotic coefficient (283.15 K, m1 = 0.8544)?
A: 0.9328 ± 0.0029

Q: And the osmotic coefficient (283.15 K, m1 = 0.9569)?
A: 0.9393 ± 0.0026

Q: And the osmotic coefficient (288.15 K, m1 = 0.1041)?
A: 0.9139 ± 0.0034

Q: What about the osmotic coefficient (288.15 K, m1 = 0.1562) of the same compound?
A: 0.908 ± 0.0036

Q: And the osmotic coefficient (288.15 K, m1 = 0.2772)?
A: 0.8982 ± 0.004

Q: What about the osmotic coefficient (288.15 K, m1 = 0.3749) of the same compound?
A: 0.8947 ± 0.0041

Q: What about the osmotic coefficient (288.15 K, m1 = 0.4763) of the same compound?
A: 0.8941 ± 0.0042

Q: What about the osmotic coefficient (288.15 K, m1 = 0.6002) of the same compound?
A: 0.8934 ± 0.0043

Q: And the osmotic coefficient (288.15 K, m1 = 0.6897)?
A: 0.8963 ± 0.0042

Q: And the osmotic coefficient (288.15 K, m1 = 0.7971)?
A: 0.8989 ± 0.0041

Q: And the osmotic coefficient (288.15 K, m1 = 0.8741)?
A: 0.9038 ± 0.0039

Q: What about the osmotic coefficient (288.15 K, m1 = 1.012) of the same compound?
A: 0.9132 ± 0.0036

Q: What does the source list for CC(C)C[N+](CC(C)C)(CC(C)C)CC(C)C.[Br-] [tetra-iso-butyl ammonium bromide] + O?
A: osmotic coefficient (283.15 K, m1 = 0.1035): 0.9253 ± 0.0029; osmotic coefficient (283.15 K, m1 = 0.1376): 0.9231 ± 0.0031; osmotic coefficient (283.15 K, m1 = 0.2192): 0.9167 ± 0.0034; osmotic coefficient (283.15 K, m1 = 0.2986): 0.9138 ± 0.0035; osmotic coefficient (283.15 K, m1 = 0.3332): 0.9133 ± 0.0036; osmotic coefficient (283.15 K, m1 = 0.4724): 0.9129 ± 0.0037; osmotic coefficient (283.15 K, m1 = 0.5608): 0.9146 ± 0.0037; osmotic coefficient (283.15 K, m1 = 0.6871): 0.9179 ± 0.0037; osmotic coefficient (283.15 K, m1 = 0.7904): 0.9217 ± 0.0036; osmotic coefficient (283.15 K, m1 = 0.8617): 0.9249 ± 0.0035; osmotic coefficient (283.15 K, m1 = 0.9658): 0.9307 ± 0.0034; osmotic coefficient (288.15 K, m1 = 0.1041): 0.9142 ± 0.0034; osmotic coefficient (288.15 K, m1 = 0.1569): 0.9038 ± 0.0038; osmotic coefficient (288.15 K, m1 = 0.2795): 0.8908 ± 0.0043; osmotic coefficient (288.15 K, m1 = 0.3804): 0.8818 ± 0.0047; osmotic coefficient (288.15 K, m1 = 0.4856): 0.877 ± 0.005; osmotic coefficient (288.15 K, m1 = 0.6127): 0.8752 ± 0.0051; osmotic coefficient (288.15 K, m1 = 0.7082): 0.8728 ± 0.0052; osmotic coefficient (288.15 K, m1 = 0.8192): 0.8747 ± 0.0052; osmotic coefficient (288.15 K, m1 = 0.9012): 0.8766 ± 0.0052; osmotic coefficient (288.15 K, m1 = 1.05): 0.8804 ± 0.0051

Q: For CCC(C)[N+](C(C)CC)(C(C)CC)C(C)CC.[Br-] (stereo not given) [tetra-sec-butyl ammonium bromide] + O, which osmotic coefficient (283.15 K, m1 = 0.1033) is on record?
A: 0.927 ± 0.0029

Q: And the osmotic coefficient (283.15 K, m1 = 0.1377)?
A: 0.9222 ± 0.0031

Q: What about the osmotic coefficient (283.15 K, m1 = 0.2195) of the same compound?
A: 0.9154 ± 0.0035

Q: And the osmotic coefficient (283.15 K, m1 = 0.2991)?
A: 0.9123 ± 0.0036

Q: What about the osmotic coefficient (283.15 K, m1 = 0.3339) of the same compound?
A: 0.9114 ± 0.0037

Q: What about the osmotic coefficient (283.15 K, m1 = 0.4732) of the same compound?
A: 0.9114 ± 0.0039

Q: And the osmotic coefficient (283.15 K, m1 = 0.5619)?
A: 0.9128 ± 0.0039

Q: And the osmotic coefficient (283.15 K, m1 = 0.6887)?
A: 0.9157 ± 0.0039

Q: What about the osmotic coefficient (283.15 K, m1 = 0.7927) of the same compound?
A: 0.919 ± 0.0039

Q: And the osmotic coefficient (283.15 K, m1 = 0.8651)?
A: 0.9213 ± 0.0038

Q: And the osmotic coefficient (283.15 K, m1 = 0.9705)?
A: 0.9261 ± 0.0037

Q: What about the osmotic coefficient (288.15 K, m1 = 0.1042) of the same compound?
A: 0.913 ± 0.0034

Q: And the osmotic coefficient (288.15 K, m1 = 0.1572)?
A: 0.9021 ± 0.0039

Q: What about the osmotic coefficient (288.15 K, m1 = 0.2811) of the same compound?
A: 0.8859 ± 0.0046

Q: And the osmotic coefficient (288.15 K, m1 = 0.3824)?
A: 0.8772 ± 0.0049

Q: And the osmotic coefficient (288.15 K, m1 = 0.4912)?
A: 0.867 ± 0.0054

Q: What about the osmotic coefficient (288.15 K, m1 = 0.6212) of the same compound?
A: 0.8632 ± 0.0056

Q: And the osmotic coefficient (288.15 K, m1 = 0.7168)?
A: 0.8624 ± 0.0057

Q: And the osmotic coefficient (288.15 K, m1 = 0.8295)?
A: 0.8638 ± 0.0057

Q: What about the osmotic coefficient (288.15 K, m1 = 0.9119) of the same compound?
A: 0.8663 ± 0.0056

Q: What about the osmotic coefficient (288.15 K, m1 = 1.06) of the same compound?
A: 0.8713 ± 0.0055

Q: For CCCC[N+](CCCC)(CCCC)CCCC.[Br-] [tetrabutylammonium bromide] + O, which osmotic coefficient (283.15 K, m1 = 0.1035) is on record?
A: 0.9257 ± 0.003

Q: What about the osmotic coefficient (283.15 K, m1 = 0.138) of the same compound?
A: 0.9204 ± 0.0032

Q: What about the osmotic coefficient (283.15 K, m1 = 0.2197) of the same compound?
A: 0.9146 ± 0.0034

Q: And the osmotic coefficient (283.15 K, m1 = 0.2995)?
A: 0.9111 ± 0.0037

Q: And the osmotic coefficient (283.15 K, m1 = 0.3343)?
A: 0.9104 ± 0.0037

Q: And the osmotic coefficient (283.15 K, m1 = 0.4739)?
A: 0.9101 ± 0.004

Q: What about the osmotic coefficient (283.15 K, m1 = 0.5629) of the same compound?
A: 0.9111 ± 0.0042

Q: And the osmotic coefficient (283.15 K, m1 = 0.6903)?
A: 0.9136 ± 0.0042

Q: And the osmotic coefficient (283.15 K, m1 = 0.7953)?
A: 0.916 ± 0.0042

Q: And the osmotic coefficient (283.15 K, m1 = 0.8682)?
A: 0.918 ± 0.0042

Q: And the osmotic coefficient (283.15 K, m1 = 0.9751)?
A: 0.9217 ± 0.0041

Q: And the osmotic coefficient (288.15 K, m1 = 0.1045)?
A: 0.9107 ± 0.0035

Q: What about the osmotic coefficient (288.15 K, m1 = 0.1582) of the same compound?
A: 0.8964 ± 0.0041

Q: And the osmotic coefficient (288.15 K, m1 = 0.2837)?
A: 0.8776 ± 0.0049

Q: And the osmotic coefficient (288.15 K, m1 = 0.3864)?
A: 0.8681 ± 0.0053

Q: What about the osmotic coefficient (288.15 K, m1 = 0.4954) of the same compound?
A: 0.8596 ± 0.0058

Q: And the osmotic coefficient (288.15 K, m1 = 0.628)?
A: 0.8539 ± 0.0062

Q: And the osmotic coefficient (288.15 K, m1 = 0.7262)?
A: 0.8512 ± 0.0063

Q: And the osmotic coefficient (288.15 K, m1 = 0.8429)?
A: 0.8501 ± 0.0064

Q: And the osmotic coefficient (288.15 K, m1 = 0.9276)?
A: 0.8517 ± 0.0064

Q: What about the osmotic coefficient (288.15 K, m1 = 1.079) of the same compound?
A: 0.8566 ± 0.0062
